The text below walks through data of patent US8183243B2, “Melanocortin receptor agonists” (LG Life Sciences Ltd., priority 2008, dated 2012).

Like-named read-outs stand apart in the source and are kept apart here.

In the assay the target is T1, MC4R (Homo sapiens, UniProt P32245).
T1 construct: expressed in transfected cells; host or cells: HEK (Human Embryonic Kidney) permanent expression cell line HEK MC4R-Luc, co-expressing CRE-luciferase
As to the kind of experiment: MCR agonistic activity (luciferase assay / cAMP accumulation assay) on MC4R. The format is cell-based. The following applies: HEK cell lines expressing MC4R, not said which. How it is done:
Physiological activity of the compounds of the present invention was assessed by measuring agonistic activity as well as binding activity for melanocortin receptors (MCR) according to methods A and B explained as follows.
As one of the methods to measure MCR agonistic activity of the compound according to the present invention, the expression level of a marker gene (for example, luciferase) which increases proportionally according to the increase of cAMP content in the cell, was measured.
First, permanent expression HEK (Human Embryonic Kidney) cell lines (HEK MC1R-Luc, MC3R-Luc, MC4R-Luc or MC5R-Luc) expressing the MCR gene of each subtype together with luciferase gene (CRE-LUC) under the control of CRE (cAMP Response Element) were constructed. The above cell lines were incubated in an incubator with 6% CO2 atmosphere at 37° C. using selection medium, DMEM(Dulbecco's Modified Eagles Medium) containing 10% heat-inactivated fetal bovine serum (Gibco/BRL), 100 unit/ml, penicillin (Gibco/BRL), 100 unit/ml streptomycin (Gibco/BRL), and 200 μg/ml geneticin (G418) (Gibco/BRL). When the cell covered 70% of total surface of the culture dish with 100 mm diameter, the culture dish was rinsed one time with 10 ml Phosphate Buffered Saline(PBS) free of Ca^++ and Mg^++, and then 3 ml PBS solution containing 0.05% trypsin and 0.53 mM EDTA was added thereto. After the trypsin/EDTA solution was removed, the cell lines were incubated in an thermostatic incubator for 1 minute at 37° C., and resuspended in 10 ml selection medium and centrifuged for 5 minutes at 1500 rpm. The supernatant was discarded and the settled cells were resuspended in 5 ml selection medium free of Phenol Red. The resulting cell-suspension was plated onto each well of 96-well culture plates for Luminometer(Costar) with a concentration of 5×10^4 cell in 100 μl culture medium for each well and incubated in the incubator with 6% CO2 atmosphere at 37° C. for 18 hours. With MCR agonists (Example compounds) diluted stepwise using the above culture medium, the cells were treated under the condition of the final DMSO concentration not exceeding 1%, and incubated for 5 hours in the atmosphere of 6% CO2 at 37° C. Then, 50 μl Bright-Glo (Promega) was added to each well. After allowing the treated cells to be at room temperature for 15 minutes, luminescence was measured for each well by using luminometer (Victor). The level of luminescence induced by the stepwise-diluted agonist was converted to relative % value to those by the treatment of 10 nM NDP-MSH. The EC50 indicates the concentration of each agonist for inducing 50% of maximal luminescence by each agonist and this value was measured by a statistical software (Prizm).
B. cAMP Accumulation Assay
As another method to measure MCR agonistic activity of the compound according to the present invention, an increase of cAMP amount in the cell was measured.
First, permanent expression HEK (Human Embryonic Kidney) cell lines (HEK MC1R-Luc, MC3R-Luc, MC4R-Luc or MCSR-Luc) expressing the MCR gene of each subtype were plated onto each well of 24-well culture plates for Luminometer(Costar) with a concentration of 2×10^5 cell in 1 ml culture medium for each well, and then incubated in an incubator with 6% CO2 atmosphere at 37° C. for 24 hours. The medium was removed from each well followed by rinsing with 0.5 ml cold DMEM one time. With MCR agonists (Example compounds) diluted stepwise using 200 μl DMEM including 500 μM IBMX (isobutylmethylxanthine), the cells were treated under the condition of the final DMSO concentration not exceeding 1%, and incubated for 30 minutes in the atmosphere of 6% CO2 at 37° C. Then, the cAMP amount in each cell was measured using Amersham cAMP assay Kit (TRK432).
More specifically, 14.4 μl of 6M PCA (60%) was added to each well, and allowed to be in ice for 10 minutes, and 200 μl sample was taken from each well and transferred to microcentrifuge tube. […]

Where [1] appears, read: method A (CRE-luciferase) or B (cAMP accumulation), read-out: EC50 value, agonistic activity to MC4R (range per group of Examples).
The mark [2] stands for this setting: specific activities of representative compounds, method A or B, read-out: EC50.

T1 sequence (P32245 whole entry, species assumed): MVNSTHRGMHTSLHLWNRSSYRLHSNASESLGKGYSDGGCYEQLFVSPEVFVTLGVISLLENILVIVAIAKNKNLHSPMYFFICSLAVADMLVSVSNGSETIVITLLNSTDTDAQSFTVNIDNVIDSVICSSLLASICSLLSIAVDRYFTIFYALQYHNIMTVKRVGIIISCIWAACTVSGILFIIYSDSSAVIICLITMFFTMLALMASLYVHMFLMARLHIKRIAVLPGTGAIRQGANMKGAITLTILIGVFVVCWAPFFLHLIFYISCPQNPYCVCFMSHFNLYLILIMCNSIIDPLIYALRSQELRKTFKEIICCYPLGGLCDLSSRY

Consider `CN1CCN(C(=O)[C@H]2C[C@H](N(C(=O)[C@@H]3CCCO3)[C@H]3CC[C@@H](C)CC3)CN2C(=O)[C@@H]2CN(C(C)(C)C)C[C@H]2c2ccc(Cl)cc2)CC1` (relative stereo) [Example 35, (2S)-N-{(3S,5R)-1-{[(3S,4R)-1-tert-butyl-4-(4-chlorophenyl)pyrrolidin-3-yl]carbonyl}-5-[(4-methylpiperazin-1-yl)carbonyl]pyrrolidin-3-yl}-N-(cis-4-methylcyclohexyl)tetrahydrofuran-2-carboxamide], for which the EC50 (commonly the concentration that produces a half-maximal response) under setting [1] fell in the range of 0.1 to 10 nM. As to `CC(=O)N(C1CCC(C)(C)CC1)[C@H]1C[C@@H](C(=O)N2CCN(C)CC2)N(C(=O)[C@@H]2CN(C(C)(C)C)C[C@H]2c2ccc(Cl)cc2)C1` [Example 1, N-{(3S,5S)-1-{[(3S,4R)-1-tert-butyl-4-(4-chlorophenyl)pyrrolidin-3-yl]carbonyl}-5-[(4-methylpiperazin-1-yl)carbonyl]pyrrolidin-3-yl}-N-(4,4-dimethylcyclohexyl)acetamide], the EC50 was 0.1 to 10 nM under setting [1] and 10 nM under setting [2]. Regarding `CC(=O)N(C1CCC(C)(C)CC1)[C@H]1C[C@@H](C(=O)N2CCNCC2)N(C(=O)[C@@H]2CN(C(C)(C)C)C[C@H]2c2ccc(F)cc2F)C1` [Example 2, N-[(3S,5S)-1-{[(3S,4R)-1-tert-butyl-4-(2,4-difluorophenyl)pyrrolidin-3-yl]carbonyl}-5-(piperazin-1-ylcarbonyl)pyrrolidin-3-yl]-N-(4,4-dimethylcyclohexyl)acetamide], the EC50 is, setting by setting: under setting [1], 0.1 to 10 nM; under setting [2], 6 nM. For `CN1CCN(C(=O)[C@@H]2C[C@H](N(C(=O)[C@@H]3CCCO3)C3CCC(C)(C)CC3)CN2C(=O)[C@@H]2CN(C(C)(C)C)C[C@H]2c2ccc(Cl)cc2)CC1` [Example 3, (2S)-N-{(3S,5S)-1-{[(3S,4R)-1-tert-butyl-4-(4-chlorophenyl)pyrrolidin-3-yl]carbonyl}-5-[(4-methylpiperazin-1-yl)carbonyl]pyrrolidin-3-yl}-N-(4,4-dimethylcyclohexyl)tetrahydrofuran-2-carboxamide], the EC50 is 0.1 to 10 nM under setting [1] and 3 nM under setting [2]. As for `CN1CCN(C(=O)[C@@H]2C[C@H](N(C(=O)C(C)(C)CO)C3CCC(C)(C)CC3)CN2C(=O)[C@@H]2CN(C(C)(C)C)C[C@H]2c2ccc(Cl)cc2)CC1` [Example 4, N-{(3S,5S)-1-{[(3S,4R)-1-tert-butyl-4-(4-chlorophenyl)pyrrolidin-3-yl]carbonyl}-5-[(4-methylpiperazin-1-yl)carbonyl]pyrrolidine-3-yl}-N-(4,4-dimethylcyclohexyl)-3-hydroxy-2,2-dimethylpropanamide], the EC50 is 0.1 to 10 nM under setting [1] and 0.2 nM under setting [2]. For the molecule `CC(=O)N(C1CCC(C)(C)CC1)[C@H]1C[C@@H](C(=O)N2CCN(C)CC2)N(C(=O)[C@@H]2CN(C(C)(C)C)C[C@H]2c2ccc(F)cc2F)C1` [Example 5, N-{(3S,5S)-1-{[(3S,4R)-1-tert-butyl-4-(2,4-difluorophenyl)pyrrolidin-3-yl]carbonyl}-5-[(4-methylpiperazin-1-yl)carbonyl]pyrrolidin-3-yl}-N-(4,4-dimethylcyclohexyl)acetamide], under setting [1], the EC50 fell in the range of 10 to 100 nM. On the same count and under the same terms, as for `CCN1CCN(C(=O)[C@@H]2C[C@H](N(C(C)=O)C3CCC(C)(C)CC3)CN2C(=O)[C@@H]2CN(C(C)(C)C)C[C@H]2c2ccc(F)cc2F)CC1` [Example 6, N-{(3S,5S)-1-{[(3S,4R)-1-tert-butyl-4-(2,4-difluorophenyl)pyrrolidin-3-yl]carbonyl}-5-[(4-ethylpiperazin-1-yl)carbonyl]pyrrolidin-3-yl}-N-(4,4-dimethylcyclohexyl)acetamide], the figure is 10 to 100 nM. In the case of `CC(=O)N(C1CCC(C)(C)CC1)[C@H]1C[C@@H](C(=O)N2CCN(C(C)C)CC2)N(C(=O)[C@@H]2CN(C(C)(C)C)C[C@H]2c2ccc(F)cc2F)C1` [Example 7, N-{(3S,5S)-1-{[(3S,4R)-1-tert-butyl-4-(2,4-difluorophenyl)pyrrolidin-3-yl]carbonyl}-5-[(4-isopropylpiperazin-1-yl)carbonyl]pyrrolidin-3-yl}-N-(4,4-dimethylcyclohexyl)acetamide], the EC50 under setting [1] was in the range of 10 to 100 nM. On to `CCN1CCN(C(=O)[C@@H]2C[C@H](N(C(C)=O)C3CCC(C)(C)CC3)CN2C(=O)[C@@H]2CN(C(C)(C)C)C[C@H]2c2ccc(Cl)cc2)CC1` [Example 8, N-{(3S,5S)-1-{[(3S,4R)-1-tert-butyl-4-(4-chlorophenyl)pyrrolidin-3-yl]carbonyl}-5-[(4-ethylpiperazin-1-yl)carbonyl]pyrrolidin-3-yl}-N-(4,4-dimethylcyclohexyl)acetamide], for which the EC50 under setting [1] was 0.1 to 10 nM.

Take `CC(=O)N(C1CCC(C)(C)CC1)[C@H]1C[C@@H](C(=O)N2CCN(C(C)C)CC2)N(C(=O)[C@@H]2CN(C(C)(C)C)C[C@H]2c2ccc(Cl)cc2)C1` [Example 9, N-{(3S,5S)-1-{[(3S,4R)-1-tert-butyl-4-(4-chlorophenyl)pyrrolidin-3-yl]carbonyl}-5-[(4-isopropylpiperazin-1-yl)carbonyl]pyrrolidin-3-yl}-N-(4,4-dimethylcyclohexyl)acetamide]: the EC50 under setting [1] is 0.1 to 10 nM. Take `CN1CCN(C(=O)[C@@H]2C[C@H](N(C(=O)C(C)(C)C)C3CCC(C)(C)CC3)CN2C(=O)[C@@H]2CN(C(C)(C)C)C[C@H]2c2ccc(Cl)cc2)CC1` [Example 10, N-{(3S,5S)-1-{[(3S,4R)-1-tert-butyl-4-(4-chlorophenyl)pyrrolidin-3-yl]carbonyl}-5-[(4-methylpiperazin-1-yl)carbonyl]pyrrolidin-3-yl}-N-(4,4-dimethylcyclohexyl)-2,2-dimethylpropanamide]: the EC50 under setting [1] was 0.1 to 10 nM. Consider `CN1CCN(C(=O)[C@@H]2C[C@H](N(C(=O)C(C)(C)C)C3CCC(C)(C)CC3)CN2C(=O)[C@@H]2CN(C(C)(C)C)C[C@H]2c2ccc(F)cc2F)CC1` [Example 11, N-{(3S,5S)-1-{[(3S,4R)-1-tert-butyl-4-(2,4-difluorophenyl)pyrrolidin-3-yl]carbonyl}-5-[(4-methylpiperazin-1-yl)carbonyl]pyrrolidin-3-yl}-N-(4,4-dimethylcyclohexyl)-2,2-dimethylpropanamide], for which the 50% effective concentration (EC50) under setting [1] was 0.1 to 10 nM. Regarding `CCN1CCN(C(=O)[C@@H]2C[C@H](N(C(=O)[C@@H]3CCCO3)C3CCC(C)(C)CC3)CN2C(=O)[C@@H]2CN(C(C)(C)C)C[C@H]2c2ccc(Cl)cc2)CC1` [Example 12, (2S)-N-{(3S,5S)-1-{[(3S,4R)-1-tert-butyl-4-(4-chlorophenyl)pyrrolidin-3-yl]carbonyl}-5-[(4-ethylpiperazin-1-yl)carbonyl]pyrrolidin-3-yl}-N-(4,4-dimethylcyclohexyl)tetrahydrofuran-2-carboxamide], the EC50 under setting [1] was 0.1 to 10 nM.

Consider `CC(C)N1CCN(C(=O)[C@@H]2C[C@H](N(C(=O)[C@@H]3CCCO3)C3CCC(C)(C)CC3)CN2C(=O)[C@@H]2CN(C(C)(C)C)C[C@H]2c2ccc(Cl)cc2)CC1` [Example 13, (2S)-N-{(3S,5S)-1-{[(3S,4R)-1-tert-butyl-4-(4-chlorophenyl)pyrrolidin-3-yl]carbonyl}-5-[(4-isopropylpiperazin-1-yl)carbonyl]pyrrolidin-3-yl}-N-(4,4-dimethylcyclohexyl)tetrahydrofuran-2-carboxamide], for which the EC50 under setting [1] is 0.1 to 10 nM.
